Data set [1] in a line: Stability of the peptides at 37° C. in 10% mannitol (HPLC peak area). The format is physicochemical. Here is the method: The stability of the peptide SEQ ID NO: 1 in which the serine at position 10 is phosphorylated and the methionine at position 4 is oxydized (P140(MO)), and the peptide SEQ ID NO: 1 in which the serine at position 10 is phosphorylated (P140) was measured at 37° C., in a solution of 10% (v/v) mannitol. For each peptide, 3 concentrations have been tested: 200, 100 and 50 μg/mL.
At the indicated time, the integrity of P140 and P140(MO) peptides was measured in saline by high-performance liquid chromatography from the area of the peak corresponding to the intact peptide.
Stability is measured by using the HPLC peak surface.

The subject of another data set is Balb/c mice. Description: 15-day ovalbumin-induced airway hypereosinophilia model, BAL cell counts. The format is in vivo, mouse. Particulars: i.n. or i.v., control mice challenged with saline; no pro-inflammatory effect. Here is the method:
The anti-inflammatory effect of the P140 phosphopeptide was evaluated when administered locally (intranasally) or systemically (intravenously) in a 15-day model of hypereosinophilic airway inflammation in mice.
The P140 phosphopeptide was solubilized in sterile water (Braun) and 10× concentrate sterile saline was added to adjust osmolarity to 300 mosm. Osmolarity was controlled with a micro osmometer (Loser, type 15) and validated (302 mosm).
The P140 phosphopeptide was used in vivo at the dose of 4 mg/kg by intranasal (i.n.) and intravenous (i.v.) routes. Control animals received equivalent volumes (1 ml/kg for i.n. and 2 ml/kg for i.v.) of saline (Table 6).
Nine-week-old male Balb/c mice were sensitized by intraperitoneal (i.p.) injections of a mixture containing 50 μg OVA (Sigma-Aldrich) and 2 mg alum (Sigma-Aldrich) in 0.1 ml saline. Mice were challenged by i.n. administration of 25 μl of OVA on day 5, then 25 μl of OVA and/or saline on day 12, 13 and 14. […]
BAL was performed twenty-four hours after LPS challenge as described (Daubeuf, F. and Frossard, N. 2012. Performing Bronchoalveolar Lavage in the Mouse. Curr Protoc Mouse Biol 2:167-175). […] The cell pellet was suspended in 500 μl of 0.9% NaCl and used for total cell counts evaluated on a Muse® Cell Analyser. Differential cell counts were assessed by flow cytometry (LSRII® cytometer, BD Bioscience). […]

The test system of data set [2] is MRL/lpr mice. Description: Cellularity analysis of peripheral blood in MRL/lpr mice. The format is in vivo, mouse. Particulars: 100 μg/100 μL, 5 days after unique injection. Here is the method:
MRL/lpr mice were injected with 100 μg/100 μL of P140 or P140(MO) and cellularity (preipheral blood) was studied 5 days after this unique injection. The count includes all the leucocytes. In view of the low number of tested mice, a non parametric statistical test has been realised Mann-Whitney).

For the next data set, the target named is T1, Recombinant bovine HSC70 (Bos taurus, UniProt P19120).
T1 construct: purchased Stressgen
T1 sequence (P19120 whole entry): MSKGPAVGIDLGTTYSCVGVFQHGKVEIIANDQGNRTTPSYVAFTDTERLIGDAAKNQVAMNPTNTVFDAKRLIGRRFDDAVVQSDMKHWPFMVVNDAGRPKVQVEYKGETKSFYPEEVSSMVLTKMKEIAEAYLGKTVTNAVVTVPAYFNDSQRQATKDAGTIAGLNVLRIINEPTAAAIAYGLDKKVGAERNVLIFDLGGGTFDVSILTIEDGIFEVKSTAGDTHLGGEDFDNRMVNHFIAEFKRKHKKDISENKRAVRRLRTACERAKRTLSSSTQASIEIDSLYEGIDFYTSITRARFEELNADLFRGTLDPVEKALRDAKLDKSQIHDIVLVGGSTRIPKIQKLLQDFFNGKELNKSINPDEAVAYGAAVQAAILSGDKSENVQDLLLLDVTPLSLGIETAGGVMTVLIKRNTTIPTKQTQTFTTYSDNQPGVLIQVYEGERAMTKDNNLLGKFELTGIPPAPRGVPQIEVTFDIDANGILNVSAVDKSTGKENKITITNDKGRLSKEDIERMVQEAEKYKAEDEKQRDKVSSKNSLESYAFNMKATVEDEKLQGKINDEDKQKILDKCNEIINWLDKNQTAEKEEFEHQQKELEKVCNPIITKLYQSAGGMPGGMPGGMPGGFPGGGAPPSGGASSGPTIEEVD
The experiment in a line: BIAcore binding of P140 peptides to HSC70. Here is the method:
BIAcore 3000 system (Biacore AB) was used to evaluate the binding of P140 peptides to HSC70 protein (Page et al., 2009, and 2011). Sensor chip CMS, surfactant P20, amine coupling kit containing N-hydroxysuccinimide (NHS) and N-ethyl-N′-dimethylaminopropyl carbodiimide (EDC), 2-(2-pyridinyldithio)ethaneamine (PDEA) and ethanolamine were from Biacore AB. Biosensor assays were performed with HBS-EP buffer as running buffer (10 mM HEPES, 150 mM NaCl, 3 mM EDTA, 0.005% surfactant P20, pH 7.4). The compounds were diluted in the running buffer. The sensor chip surface was regenerated after each experiment by injecting 10 μL of 10 mM HCl. Recombinant bovine HSC70 (Stressgen) was immobilized on flow cells of a CMS sensor chip through its thiol groups using 35 μL PDEA in 50 mM borate buffer, pH 8.3 on the NHS/EDC-activated matrix. Then, 35 μL of HSC70 (100 μg/mL in formate buffer, pH 4.3) were injected until a response of 13,000 response units (RU) corresponding to 13 ng/mm^2 of HSC70 was immobilized. Twenty μL of a 50 mM cysteine/1 M NaCl solution was used to saturate unoccupied sites on the chip. The direct binding measurement of P140 peptides to HSC70 was carried out at 25° C. with a constant flow rate of 20 μL/min. […] The kinetic parameters were calculated using the BIAeval 3.1 software on a personal computer. […]
On the technique in general: In SPR one partner is held on a chip, and binding of the other changes the refractive index at the surface.

Data set [3] has as its system MRL/lpr mice. The experiment in a line: Proteinuria analysis in MRL/lpr mice (Albustix). The format is in vivo, mouse. Particulars: compared to the untreated mice. As to the method:
Proteinuria of the above mice was measured in fresh urine using Albustix (Bayer Diagnostics) and was semi-quantitatively estimated according to a […] recommended by the manufacturer (no proteinuria=0; traces=1; 1+=2; 2+=3; 3+=4; 4+=5).
Statistical tests were performed using GraphPad Prism version 5.0. The two-way ANOVA test was used to analyze statistical significance of proteinuria differences between control and peptide-treated groups of mice. Survival of control and P140 analogue-treated female MRL/lpr mice was analyzed by the Kaplan-Meier method, and the significance of differences was determined by the log-rank test. For the other variables, statistical significance was assessed using the Student's t-test. p values less than 0.05 were considered significant.

The test system of another data set is mice. As to conditions: Monneaux et al., 2003; cited from earlier work.

Square brackets hold non-standard residues; d marks the D form. Ends that are not written are not given here. Peptide text beside a SMILES is read from it. Met(O) = CS(=O)CC[C@H](N)C(=O)O; pS = N[C@@H](COP(=O)(O)O)C(=O)O

As to `CC[C@H](C)[C@H](NC(=O)[C@H](Cc1ccccc1)NC(=O)[C@H](C)NC(=O)[C@H](Cc1ccc(O)cc1)NC(=O)CNC(=O)[C@H](CCCNC(=N)N)NC(=O)[C@@H]1CCCN1C(=O)[C@H](CCCCN)NC(=O)CNC(=O)[C@H](COP(=O)(O)O)NC(=O)[C@H](CCCNC(=N)N)NC(=O)[C@H](CCCCN)NC(=O)[C@H](CO)NC(=O)[C@H](Cc1ccc(O)cc1)NC(=O)[C@@H](NC(=O)[C@H](CCSC)NC(=O)[C@H](Cc1c[nH]cn1)NC(=O)[C@@H](NC(=O)[C@@H](N)CCCNC(=N)N)[C@@H](C)CC)C(C)C)C(=O)N[C@@H](CCC(=O)O)C(=O)N[C@@H](Cc1ccc(O)cc1)C(=O)O` [Compound P140] (H-RIHMVYSKR[pS]GKPRGYAFIEY-OH), the “Stability (%) Linear equation: coefficient of x (days)” value in data set [1] (50 μg/mL) was “y = −0.099x +”; in data set [1] (100 μg/mL), “y = −0.0612x +”; in data set [1] (200 μg/mL) it was “y = −0.0238x +”. Moreover, the “Stability (%) Linear equation: constant term” value was 98.299 in data set [1] (50 μg/mL), 99.25 in data set [1] (100 μg/mL) and 99.535 in data set [1] (200 μg/mL). Further, the “Number of cells recovered in BAL fluid as compared to vehicle” value in the data set on Balb/c mice is “little effect per se”.
As to `CC[C@H](C)[C@H](NC(=O)[C@H](Cc1ccccc1)NC(=O)[C@H](C)NC(=O)[C@H](Cc1ccc(O)cc1)NC(=O)CNC(=O)[C@H](CCCNC(=N)N)NC(=O)[C@@H]1CCCN1C(=O)[C@H](CCCCN)NC(=O)CNC(=O)[C@H](COP(=O)(O)O)NC(=O)[C@H](CCCNC(=N)N)NC(=O)[C@H](CCCCN)NC(=O)[C@H](CO)NC(=O)[C@H](Cc1ccc(O)cc1)NC(=O)[C@@H](NC(=O)[C@H](CC[S+](C)[O-])NC(=O)[C@H](Cc1c[nH]cn1)NC(=O)[C@@H](NC(=O)[C@@H](N)CCCNC(=N)N)[C@@H](C)CC)C(C)C)C(=O)N[C@@H](CCC(=O)O)C(=O)N[C@@H](Cc1ccc(O)cc1)C(=O)O` (stereo partly shown) [P140(MO), RIHM(O)VYSKRS(PO3H2)GKPRGYAFIEY] (H-RIH[Met(O)]VYSKR[pS]GKPRGYAFIEY-OH), the “Stability (%) Linear equation: coefficient of x (days)” value in data set [1] (50 μg/mL) and in data set [1] (100 μg/mL) was “y = −0.0064x +” each time. Also, the “Stability (%) Linear equation: constant term” value in data set [1] (50 μg/mL) is given as 99.677; in data set [1] (100 μg/mL), 100.11; in data set [1] (200 μg/mL), “y = 100”. In addition, the “Peripheral hypercellularity (leucocytes in blood)” value in the data set on MRL/lpr mice [2] was “decrease peripheral hypercellularity”. The “Affinity for HSC70 protein, comparison of oxidized and non-oxidized peptide” value on Recombinant bovine HSC70 is given as “not statistically different”. Further, in the data set with MRL/lpr mice [3], the “Proteinuria score over time” value was “less important and appears lately”.
Take “non-phosphorylated peptide: non-phosphorylated form of P140, not protective against disease development in mice (RIHMVYSKRSGKPRGYAFIEY; not fully specified; UniProt P08621 131-151, looked up, fragment)”: in the data set with mice, the “Protection against disease development” value was “not protective”.

(Values after patent US10213482B2, “Methods of treating chronic inflammatory diseases” (Centre National de la Recherche Scientifique, priority 2014, dated 2019).)
